The source of these data is PMC4713045 (Cancer research, 2015).

SMILES strings stand for the structures. Like-named read-outs stand apart in the source and are kept apart here.

What is called Km is the concentration of substrate that gives half-maximal velocity.

For one data set, the target named is T1, TAK1 (Homo sapiens, UniProt O43318).
T1 sequence (O43318 1-606): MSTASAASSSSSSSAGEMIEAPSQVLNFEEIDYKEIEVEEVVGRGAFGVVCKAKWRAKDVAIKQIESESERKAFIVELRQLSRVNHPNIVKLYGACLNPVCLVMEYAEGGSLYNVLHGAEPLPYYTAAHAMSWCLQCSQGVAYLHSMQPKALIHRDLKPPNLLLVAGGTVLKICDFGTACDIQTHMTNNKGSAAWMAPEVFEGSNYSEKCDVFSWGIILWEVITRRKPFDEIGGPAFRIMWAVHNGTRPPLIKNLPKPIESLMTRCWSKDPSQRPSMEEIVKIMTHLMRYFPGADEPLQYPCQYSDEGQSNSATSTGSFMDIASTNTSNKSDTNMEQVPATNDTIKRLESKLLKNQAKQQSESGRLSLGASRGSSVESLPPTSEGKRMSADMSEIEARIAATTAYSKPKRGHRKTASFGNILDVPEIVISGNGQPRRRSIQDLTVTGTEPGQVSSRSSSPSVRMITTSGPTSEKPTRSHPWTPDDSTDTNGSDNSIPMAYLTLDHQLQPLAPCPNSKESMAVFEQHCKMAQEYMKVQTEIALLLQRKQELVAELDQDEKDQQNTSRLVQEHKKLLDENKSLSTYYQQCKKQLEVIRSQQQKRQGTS
Put plainly: KiNativ in situ kinome profiling in HEKa, TAK1. The class given is binding. Particulars: intact HEKa, 1 hr treatment, clinically-achievable concentration.

The test system of data set [1] is Human primary keratinocytes (HEKa). Put plainly: HEKa cell viability.
The test system of data set [2] is sorafenib uptake in HEKa (OATs; SLC22A). As to the kind of experiment: Inhibition of sorafenib uptake in HEKa by transporter inhibitors. Format: cell-based, human. Particulars: OAT inhibitors 100 µM, sorafenib 1 µM, 15 min.
Data set [3] has as its system hair follicle growth in mice after depilation. As to the kind of experiment: Wax-depilation hair follicle regrowth study. The class given is in vivo, C57BL6 mice. The following applies: twice daily oral.
Another data set concerns HEKa. Put plainly: In vitro transport assay: intracellular drug accumulation in HEKa. Format: in vitro ADME, human. Particulars: for intracellular accumulation / transport in HEKa (in words): kinase inhibitors 1 µM, 5 min.
Data set [4] is described as follows: Plasma pharmacokinetic study of sorafenib. The following applies: sorafenib 60 mg/kg oral, single agent, 0 to 6 hours. Format: in vivo, C57BL6 mice.
The conditions of data set [5]: cited from earlier work.
For data set [6], the system named is sorafenib accumulation in MPEK. As to the kind of experiment: Inhibition of sorafenib accumulation in MPEK by probenecid. Format: cell-based, mouse. The following applies: probenecid 100 µM, sorafenib 1 µM, 15 min.
The test system of data set [7] is A549, 7860, HepG2 and CHRF288-11 cell lines. As to the kind of experiment: In vitro antitumor efficacy of sorafenib with or without probenecid. Format: cell-based, human. The following applies: probenecid 500 µM, sorafenib 0.1 – 100 µM, 72 hours.

For the molecule `Cc1nc(Nc2ncc(C(=O)Nc3c(C)cccc3Cl)s2)cc(N2CCN(CCO)CC2)n1` [dasatinib], the “affinity for TAK1 in HEKa by in situ kinome profiling (in words)” value on TAK1 is listed as “low affinity”.

Consider `Cc1ccc(NC(=O)c2ccc(CN3CCN(C)CC3)cc2)cc1Nc1nccc(-c2cccnc2)n1` [imatinib], for which the “cell viability / cytotoxicity against HEKa (in words)” value (“cell viability / cytotoxicity” for short) in data set [1] (HEKa, 72 h) is “not sensitive”.

On to `COc1cc(CC(=O)O)ccc1O` [homovanillic acid], for which the “sensitivity of sorafenib uptake to inhibitor” value (“sensitivity … to inhibitor” for short) in data set [2] is reported as “sensitivity of sorafenib uptake”.

With `CNC(=O)c1cc(Oc2ccc(NC(=O)Nc3ccc(Cl)c(C(F)(F)F)c3)cc2)ccn1` [sorafenib], in data set [3] (sorafenib 60 mg/kg), the “hair follicle histology (day 14, H&E)” value is “reduced melanin and a gross disruption in morphology”; the “hair growth one week after depilation” value is on record as “hair growth was delayed”. The “hair growth and pigmentation at two weeks” value in [3] (sorafenib 60 mg/kg or imatinib 100 mg/kg) is “hair was less dense and lacked pigmentation”. Besides, the “maximum velocity (Vmax) of uptake” value in the data set with HEKa (HEKa uptake) was 20,900 pmol/5min/mg protein. Further, the “intracellular accumulation / transport in HEKa (in words)” value in the data set with HEKa is “highly accumulates”. Also, the Km in the data set with HEKa (read-out: Michaelis-Menten constant (Km) of uptake, HEKa uptake) was 7 µM. In addition, in data set [4], the “area under the plasma concentration-time curve (mean ± SEM)” value is 32500 ± 10900 ng·h/mL. Moreover, in data set [5], the “permeability (in words)” value is recorded as “poorly permeable”.

For `CCN(CC)CCNC(=O)c1c(C)[nH]c(/C=C2\C(=O)Nc3ccc(F)cc32)c1C` [sunitinib], in [1], the “cell viability / cytotoxicity” value is given as “induces cytotoxicity against HEKa”. Further, at TAK1, the “affinity for TAK1 in HEKa by in situ kinome profiling (in words)” value is given as “high affinity”.

As to `C[N+]1(C)CCOC(O)(c2ccc(-c3ccc(C4(O)C[N+](C)(C)CCO4)cc3)cc2)C1.[Br-].[Br-]` (centres unmarked) [hemicholinum-3], the “sensitivity … to inhibitor” value in data set [2] is reported as “sensitivity of sorafenib uptake”.

For `CNC(=O)c1cc(Oc2ccc(NC(=O)Nc3ccc(Cl)c(C(F)(F)F)c3)cc2)cc[n+]1[O-]` [sorafenib N-oxide], the “intracellular accumulation / transport in HEKa (in words)” value with HEKa is “temperature- and time-dependent transport”. For the same molecule, the “cell viability / cytotoxicity” value in data set [1] (HEKa, 72 h) is “cytotoxicity against HEKa”.

On to `CCCN(CCC)S(=O)(=O)c1ccc(C(=O)O)cc1` [probenecid], for which the “sensitivity of sorafenib accumulation to probenecid” value in [6] is on record as “sensitive to probenecid”. Besides, the “influence of probenecid on cytotoxic effects of sorafenib” value in [7] is on record as “did not antagonize the cytotoxic effects of sorafenib”. The “sensitivity … to inhibitor” value in data set [2] is “sensitivity of sorafenib uptake”.

Consider `COc1cc(O)c2c(c1)/C=C/C[C@H](O)[C@H](O)C(=O)/C=C\C[C@H](C)OC2=O` [(5z)-7-oxozeaenol], for which the “cell viability / cytotoxicity” value in [1] (HEKa, 72 h) was “dose-dependently reduced cell viability”.
